Columns and labels:
[1] = biological target: Beta-lactamase (Escherichia coli) (UniProt Q53TY8); test: Kcat/Km ratio of Escherichia coli CMY-2 relative to Cephaloridine
[2] = biological target: Beta-lactamase (Escherichia coli) (UniProt Q53TY8); test: Activity of Escherichia coli CMY-2 relative to Cephaloridine
[3] = biological target: Beta-lactamase (Pseudomonas aeruginosa (strain ATCC 15692 / PAO1 / 1C / PRS 101 / LMG12228)) (UniProt P24735); test: Activity of Pseudomonas aeruginosa AmpC relative to Cephaloridine
[4] = biological target: Beta-lactamase TEM (Escherichia coli) (UniProt P62593); test: Activity of Escherichia coli TEM-1 relative to Cephaloridine
Escherichia coli [5] = test: Activity of Klebsiella pneumoniae Beta-lactamase TEM-26 relative to Cephaloridine
[6] = biological target: T1, Beta-lactamase IMP-1 (Pseudomonas aeruginosa) (UniProt Q8G9Q0); test: Activity of Pseudomonas aeruginosa IMP-1 relative to Cephaloridine
T1 sequence (whole entry): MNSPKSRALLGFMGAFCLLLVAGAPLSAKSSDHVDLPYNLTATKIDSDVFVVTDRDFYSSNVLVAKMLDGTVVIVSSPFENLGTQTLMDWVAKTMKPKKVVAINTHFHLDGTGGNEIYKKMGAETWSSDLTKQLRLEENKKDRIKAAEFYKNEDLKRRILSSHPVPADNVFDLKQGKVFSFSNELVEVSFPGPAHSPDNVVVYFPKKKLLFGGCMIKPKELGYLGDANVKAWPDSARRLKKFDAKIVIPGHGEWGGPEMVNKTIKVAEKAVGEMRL

[7] = biological target: Beta-lactamase VIM-2 (Pseudomonas aeruginosa) (UniProt Q9K2N0); test: Activity of Pseudomonas aeruginosa VIM-2 relative to Cephaloridine
[8] = biological target: Beta-lactamase OXA-23 (Acinetobacter baumannii) (UniProt Q9L4P2); test: Kcat/Km ratio of Acinetobacter baumannii OXA-23 relative to Cephaloridine
[9] = biological target: T1, Beta-lactamase IMP-1 (Pseudomonas aeruginosa); test: Kcat/Km ratio of Pseudomonas aeruginosa IMP-1 relative to Cephaloridine
Klebsiella oxytoca [10] = test: Activity of Klebsiella oxytoca Beta-lactamase K1
Klebsiella oxytoca [11] = test: Kcat/Km ratio of Klebsiella oxytoca Beta-lactamase K1 relative to Cephaloridine
[12] = biological target: Beta-lactamase (Enterobacter cloacae) (UniProt P05364); test: Activity of Enterobacter cloacae AmpC relative to Cephaloridine
[13] = biological target: T2, Beta-lactamase SHV-1 (Klebsiella pneumoniae) (UniProt P0AD64); test: Kcat/Km ratio of Klebsiella pneumoniae SHV-1 relative to Cephaloridine
T2 sequence (whole entry): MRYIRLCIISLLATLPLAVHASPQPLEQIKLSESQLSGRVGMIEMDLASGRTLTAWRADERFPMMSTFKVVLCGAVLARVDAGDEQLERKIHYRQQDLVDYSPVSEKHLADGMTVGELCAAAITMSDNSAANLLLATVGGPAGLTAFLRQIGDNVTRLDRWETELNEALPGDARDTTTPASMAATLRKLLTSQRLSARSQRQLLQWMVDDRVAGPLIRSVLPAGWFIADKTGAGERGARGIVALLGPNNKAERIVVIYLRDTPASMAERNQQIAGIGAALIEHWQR

[14] = biological target: Beta-lactamase (Pseudomonas aeruginosa (strain ATCC 15692 / PAO1 / 1C / PRS 101 / LMG12228)) (UniProt P24735); test: Kcat/Km ratio of Pseudomonas aeruginosa AmpC relative to Cephaloridine
[15] = biological target: Beta-lactamase OXA-10 (Pseudomonas aeruginosa) (UniProt P14489); test: Activity of Pseudomonas aeruginosa OXA-10 relative to Cephaloridine
[16] = biological target: Beta-lactamase (Enterobacter cloacae) (UniProt P05364); test: Kcat/Km ratio of Enterobacter cloacae AmpC relative to Cephaloridine
[17] = biological target: Carbapenem-hydrolyzing beta-lactamase KPC (Klebsiella pneumoniae) (UniProt Q9F663); test: Kcat/Km ratio of Klebsiella pneumoniae KPC-2 relative to Cephaloridine
Escherichia coli [18] = test: Kcat/Km ratio of Klebsiella pneumoniae Beta-lactamase TEM-26 relative to Cephaloridine
[19] = biological target: Beta-lactamase CTX-M (Escherichia coli) (UniProt Q9EXV5); test: Kcat/Km ratio of Escherichia coli CTX-M-15 relative to Cephaloridine
[20] = biological target: T3, Carbapenem-hydrolyzing beta-lactamase SME-3 (Serratia marcescens) (UniProt Q6PRG8); test: Kcat/Km ratio of Serratia marcescens SME-3 relative to Cephaloridine
T3 sequence (whole entry): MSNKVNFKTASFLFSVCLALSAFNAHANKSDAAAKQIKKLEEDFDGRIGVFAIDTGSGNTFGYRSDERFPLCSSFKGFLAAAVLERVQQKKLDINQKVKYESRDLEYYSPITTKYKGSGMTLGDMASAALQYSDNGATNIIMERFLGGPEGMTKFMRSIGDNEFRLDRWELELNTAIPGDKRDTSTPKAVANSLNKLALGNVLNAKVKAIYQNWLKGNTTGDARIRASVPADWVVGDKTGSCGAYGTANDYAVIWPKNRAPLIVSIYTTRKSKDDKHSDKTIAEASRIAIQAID

[21] = biological target: Beta-lactamase CTX-M (Escherichia coli) (UniProt Q9EXV5); test: Activity of Escherichia coli CTX-M-15 relative to Cephaloridine
[22] = biological target: T2, Beta-lactamase SHV-1 (Klebsiella pneumoniae); test: Activity of Klebsiella pneumoniae SHV-1 relative to Cephaloridine
[23] = biological target: Beta-lactamase VIM-2 (Pseudomonas aeruginosa) (UniProt Q9K2N0); test: Kcat/Km ratio of Pseudomonas aeruginosa VIM-2 relative to Cephaloridine
Klebsiella oxytoca [24] = test: Kcat/Km ratio of Klebsiella oxytoca Beta-lactamase K1
Klebsiella pneumoniae = test: Activity of Klebsiella pneumoniae Beta-lactamase TEM-26
[25] = biological target: Beta-lactamase TEM (Escherichia coli) (UniProt P62593); test: Kcat/Km ratio of Escherichia coli TEM-1 relative to Cephaloridine
[26] = biological target: Beta-lactamase OXA-23 (Acinetobacter baumannii) (UniProt Q9L4P2); test: Activity of Acinetobacter baumannii OXA-23 relative to Cephaloridine
[27] = biological target: T3, Carbapenem-hydrolyzing beta-lactamase SME-3 (Serratia marcescens); test: Activity of Serratia marcescens SME-3 relative to Cephaloridine
Escherichia coli [28] = test: Kcat/Km ratio of Klebsiella pneumoniae Beta-lactamase TEM-26
[29] = biological target: Carbapenem-hydrolyzing beta-lactamase KPC (Klebsiella pneumoniae) (UniProt Q9F663); test: Activity of Klebsiella pneumoniae KPC-2 relative to Cephaloridine
Klebsiella oxytoca [30] = test: Activity of Klebsiella oxytoca Beta-lactamase K1 relative to Cephaloridine
[31] = system: C[C@@H](O)[C@H]1C(=O)N2C(C(=O)O)=C(S[C@@H]3CN[C@H](CNS(N)(=O)=O)C3)[C@H](C)[C@H]12; test: Activity of Pseudomonas aeruginosa VIM-2
[32] = system: C[C@@H](O)[C@H]1C(=O)N2C(C(=O)O)=C(S[C@@H]3CN[C@H](CNS(N)(=O)=O)C3)[C@H](C)[C@H]12; test: Kcat/Km ratio of Pseudomonas aeruginosa VIM-2
[33] = biological target: Beta-lactamase OXA-10 (Pseudomonas aeruginosa) (UniProt P14489); test: Kcat/Km ratio of Pseudomonas aeruginosa OXA-10 relative to Cephaloridine

Molecule	Activity [1]	Activity [2]	Activity [3]	Activity (Escherichia coli [5])	Activity [6]	Activity [8]	Activity [9]	Km (Klebsiella oxytoca [10])	kcat (Klebsiella oxytoca [10])	Activity (Klebsiella oxytoca [11])	Activity [13]	Activity [14]	Activity [15]	Activity [17]	Activity (Escherichia coli [18])	kcat/Km (Klebsiella oxytoca [24])	Km (Klebsiella pneumoniae)	kcat (Klebsiella pneumoniae)	Activity [26]	kcat/Km (Escherichia coli [28])	other results
O=C(Cc1cccs1)N[C@@H]1C(=O)N2C(C(=O)O)=C(/C=C/c3ccc([N+](=O)[O-])cc3[N+](=O)[O-])CS[C@H]12	1800%	240%	160%																		
C[C@@H](O)[C@H]1C(=O)N2C(C(=O)O)=C(S[C@@H]3CN[C@H](CNS(N)(=O)=O)C3)[C@H](C)[C@H]12	0.67%	1e-05%	< 0.0063%	0.001%	41%	31%	28%	45 µM	0.0068 s⁻¹	0.0033%	0.027%	< 1.2%	< 0.046%	45%	0.0082%	150 M⁻¹ s⁻¹	8 µM	0.00037 s⁻¹	0.044%	46 M⁻¹ s⁻¹	Activity [4]: 2.1e-05%; Activity [7]: 2%; Activity [12]: 1.7e-05%; Activity [16]: 0.00059%; Activity [19]: 0.0051%; Activity [20]: 10%; Activity [21]: 0.00095%; Activity [22]: 0.00073%; Activity [23]: 34%; Activity [25]: 0.0022%; Activity [27]: 0.21%
CC(C)(O/N=C(\C(=O)N[C@@H]1C(=O)N2C(C(=O)[O-])=C(C[n+]3ccccc3)CS[C@H]12)c1csc(N)n1)C(=O)O	0.033%			260%	14%		5.7%	140 µM	0.013 s⁻¹	0.0021%	0.00077%	< 0.48%	< 0.059%	0.22%	130%	93 M⁻¹ s⁻¹	130 µM	95 s⁻¹	< 0.00093%	730000 M⁻¹ s⁻¹	Activity [22]: 0.0024%; Activity [29]: 0.097%; Activity (Klebsiella oxytoca [30]): 0.0027%
C[C@@H](O)[C@H]1C(=O)N2C(C(=O)O)=C(SCCNC=N)C[C@H]12		0.0044%	< 0.031%	0.0065%	70%	14200%	45%	51 µM	0.091 s⁻¹	0.04%	0.092%	< 7%	< 0.088%	45%	0.03%	1800 M⁻¹ s⁻¹	14 µM	0.0024 s⁻¹	0.2%	170 M⁻¹ s⁻¹	Activity [4]: 0.00097%; Activity [12]: 0.00048%; Activity [16]: 0.0066%; Activity [19]: 0.029%; Activity [20]: 83%; Activity [21]: 0.09%; Activity [22]: 0.013%; Activity [29]: 7.9%; Activity (Klebsiella oxytoca [30]): 0.019%; Activity [25]: 0.072%; Activity [27]: 31%
Beta-lactamase VIM-2 (Pseudomonas aeruginosa) (from UniProt Q9K2N0)																					Km [31]: 83 µM; kcat [31]: 2.4 s⁻¹; kcat/Km [32]: 29000 M⁻¹ s⁻¹
O=C(Cc1cccs1)N[C@@H]1C(=O)N2C(C(=O)[O-])=C(C[n+]3ccccc3)CS[C@H]12								110 µM	490 s⁻¹							4.5e+06 M⁻¹ s⁻¹	66 µM	37 s⁻¹		560000 M⁻¹ s⁻¹	
C[C@@H](O)[C@H]1C(=O)N2C(C(=O)O)=C(S[C@@H]3CN[C@H](C(=O)N(C)C)C3)[C@H](C)[C@H]12	0.058%	1.1e-05%	< 0.0063%	0.0011%	9.6%	14.9%	31%	90 µM	0.0096 s⁻¹	0.0024%	0.015%	< 1.6%	< 0.031%	37%	0.0079%	110 M⁻¹ s⁻¹	8.8 µM	0.00039 s⁻¹	0.029%	44 M⁻¹ s⁻¹	Activity [4]: 2.3e-05%; Activity [12]: 1.2e-05%; Activity [16]: 0.00042%; Activity [19]: 0.0078%; Activity [20]: 18%; Activity [21]: 0.0022%; Activity [22]: 0.00041%; Activity [29]: 0.92%; Activity (Klebsiella oxytoca [30]): 0.002%; Activity [25]: 0.00083%; Activity [27]: 0.27%
CC1(C)S[C@@H]2[C@H](NC(=O)Cc3ccccc3)C(=O)N2[C@H]1C(=O)O	420%	3.1%	46%	210%	520%	12000%	19%	40 µM	800 s⁻¹	440%		1%	540%	260%	2700%	2e+07 M⁻¹ s⁻¹	5 µM	76 s⁻¹	120%	1.5e+07 M⁻¹ s⁻¹	Activity [33]: 14000%; Activity [29]: 15%; Activity (Klebsiella oxytoca [30]): 160%
